# Assay results reported in ChEMBL document CHEMBL1201862, “PubChem BioAssay data set” (2004).
# Active and inactive are the calls of the source.
# Legend:
# [1] = target: Trypsin (Sus scrofa, UniProt P00761); experiment: trypsin protease activity blockade – biochemical, quenched peptide fluorescence, cherry-pick, selectivity assay for Rce1 protease inhibitor project, dose response (AID 488789)
# [2] = target: CAAX prenyl protease 2 (Homo sapiens, UniProt Q9Y256); experiment: inhibition of Ras-converting CAAX protease Rce1 – biochemical, yeast membranes, quenched-peptide fluorescence, cherry-pick, dose response (AID 588849)
# Sequence of CAAX prenyl protease 2 (Q9Y256 whole entry): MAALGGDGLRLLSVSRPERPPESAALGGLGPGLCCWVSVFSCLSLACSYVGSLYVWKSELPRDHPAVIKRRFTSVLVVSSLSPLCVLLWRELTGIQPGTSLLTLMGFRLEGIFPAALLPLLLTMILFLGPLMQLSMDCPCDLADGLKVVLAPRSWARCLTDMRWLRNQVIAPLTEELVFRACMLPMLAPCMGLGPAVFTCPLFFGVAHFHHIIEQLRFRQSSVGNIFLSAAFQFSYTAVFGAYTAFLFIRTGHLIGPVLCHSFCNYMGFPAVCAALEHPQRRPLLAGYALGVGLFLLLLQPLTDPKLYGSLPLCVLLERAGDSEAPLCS
# [3] = BJeH cell viability loss – BJeH cells, dry powder, counter-screen for Ras selective lethality project, dose response (AID 493054); type: functional, cell-based
# [4] = tested on: HeLa; experiment: Cytotoxicity counterscreen assay for transcriptional activators of heat shock protein 70 (Hsp70). [Related pubchem assays: 1203, 1252 ]; type: functional; conditions: Homo sapiens;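 also: cells exposed to compound for 16 hours before readout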
# [5] = target: Acyl-homoserine lactone acylase PvdQ (Pseudomonas aeruginosa (strain LESB58), UniProt Q9I194); experiment: PvdQ acylase enzyme activity blockers – biochemical, fluorescence, plate reader and imaging, cherry-picks, dose response (AID 493231)
# [6] = target: SUMO E1/E2 (Homo sapiens, UniProt P63279+Q9UBE0+Q9UBT2); experiment: SAR analysis of SUMOylation using HTRF in an in-Vitro dose response assay. [Related pubchem assays (depositor defined):AID2006, AID2011, AID2018, AID2069, AID2658]; type: functional
# [7] = target: T1, Voltage-gated N-type calcium channel alpha-1B subunit/Amyloid beta A4 precursor protein-binding family A member 1 (Homo sapiens, UniProt Q00975+Q02410); experiment: disruptors of Mint-PDZ/N-type channel peptide interaction – biochemical, HTRF, set 2, SAR follow-up (AID 434980); type: functional
# T1 sequence (Q00975 whole entry): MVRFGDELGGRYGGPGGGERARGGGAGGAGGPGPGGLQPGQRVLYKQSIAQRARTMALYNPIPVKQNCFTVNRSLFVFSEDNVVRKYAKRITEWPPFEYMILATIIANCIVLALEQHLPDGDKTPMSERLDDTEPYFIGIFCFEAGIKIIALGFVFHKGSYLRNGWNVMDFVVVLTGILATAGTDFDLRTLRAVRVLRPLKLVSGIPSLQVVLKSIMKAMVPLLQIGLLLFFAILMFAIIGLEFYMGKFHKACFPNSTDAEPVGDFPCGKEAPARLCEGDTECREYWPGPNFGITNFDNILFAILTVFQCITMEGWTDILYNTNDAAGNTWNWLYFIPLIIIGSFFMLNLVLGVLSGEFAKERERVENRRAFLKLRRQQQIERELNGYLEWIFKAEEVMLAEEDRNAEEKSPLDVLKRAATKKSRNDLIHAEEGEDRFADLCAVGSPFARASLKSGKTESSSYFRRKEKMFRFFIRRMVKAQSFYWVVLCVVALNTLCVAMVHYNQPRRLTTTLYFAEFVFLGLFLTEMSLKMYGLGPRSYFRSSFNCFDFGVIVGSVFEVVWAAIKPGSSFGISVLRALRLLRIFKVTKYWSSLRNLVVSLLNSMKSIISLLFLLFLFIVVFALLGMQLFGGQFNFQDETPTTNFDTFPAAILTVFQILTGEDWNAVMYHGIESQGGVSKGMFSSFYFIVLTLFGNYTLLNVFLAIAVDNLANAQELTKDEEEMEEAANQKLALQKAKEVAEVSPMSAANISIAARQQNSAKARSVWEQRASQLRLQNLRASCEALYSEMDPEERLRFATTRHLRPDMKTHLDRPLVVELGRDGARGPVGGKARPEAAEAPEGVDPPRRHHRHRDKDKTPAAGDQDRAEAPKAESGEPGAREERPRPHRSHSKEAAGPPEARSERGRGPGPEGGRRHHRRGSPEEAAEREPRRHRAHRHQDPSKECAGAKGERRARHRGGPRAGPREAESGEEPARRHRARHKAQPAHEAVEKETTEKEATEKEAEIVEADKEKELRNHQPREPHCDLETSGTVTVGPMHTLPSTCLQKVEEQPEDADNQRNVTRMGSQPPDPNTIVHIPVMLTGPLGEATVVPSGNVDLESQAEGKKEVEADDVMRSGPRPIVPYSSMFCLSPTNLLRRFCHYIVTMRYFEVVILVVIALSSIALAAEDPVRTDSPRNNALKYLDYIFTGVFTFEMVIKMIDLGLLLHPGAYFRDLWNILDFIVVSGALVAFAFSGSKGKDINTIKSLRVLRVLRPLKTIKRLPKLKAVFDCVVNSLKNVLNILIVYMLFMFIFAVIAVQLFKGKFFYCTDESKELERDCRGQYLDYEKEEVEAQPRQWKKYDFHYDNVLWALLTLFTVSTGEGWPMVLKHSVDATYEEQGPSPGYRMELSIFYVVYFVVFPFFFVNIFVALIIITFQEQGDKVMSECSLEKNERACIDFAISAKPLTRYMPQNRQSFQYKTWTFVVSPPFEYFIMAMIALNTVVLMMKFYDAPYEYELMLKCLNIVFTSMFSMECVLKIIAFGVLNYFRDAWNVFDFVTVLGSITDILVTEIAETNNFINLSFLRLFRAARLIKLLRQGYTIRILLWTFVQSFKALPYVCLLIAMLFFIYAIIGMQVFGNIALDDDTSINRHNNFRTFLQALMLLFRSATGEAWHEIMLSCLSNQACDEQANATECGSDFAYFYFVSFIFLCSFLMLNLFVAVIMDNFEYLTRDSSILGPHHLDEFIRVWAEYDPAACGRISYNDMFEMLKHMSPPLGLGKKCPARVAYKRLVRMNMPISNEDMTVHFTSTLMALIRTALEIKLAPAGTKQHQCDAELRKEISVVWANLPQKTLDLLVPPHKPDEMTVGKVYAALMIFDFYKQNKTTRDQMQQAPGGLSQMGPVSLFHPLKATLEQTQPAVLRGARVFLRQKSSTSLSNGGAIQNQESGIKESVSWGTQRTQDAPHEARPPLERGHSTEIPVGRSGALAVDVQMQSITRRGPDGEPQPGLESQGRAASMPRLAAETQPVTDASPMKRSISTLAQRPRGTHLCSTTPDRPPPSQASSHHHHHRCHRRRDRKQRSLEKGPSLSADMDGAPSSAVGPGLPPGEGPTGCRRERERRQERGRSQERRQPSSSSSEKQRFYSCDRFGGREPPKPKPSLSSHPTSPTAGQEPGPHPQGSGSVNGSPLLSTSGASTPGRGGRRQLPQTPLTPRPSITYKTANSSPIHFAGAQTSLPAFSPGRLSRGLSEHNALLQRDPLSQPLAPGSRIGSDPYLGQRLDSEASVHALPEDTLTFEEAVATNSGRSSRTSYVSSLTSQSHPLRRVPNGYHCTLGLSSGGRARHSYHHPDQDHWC
# T1 sequence (Q02410 whole entry): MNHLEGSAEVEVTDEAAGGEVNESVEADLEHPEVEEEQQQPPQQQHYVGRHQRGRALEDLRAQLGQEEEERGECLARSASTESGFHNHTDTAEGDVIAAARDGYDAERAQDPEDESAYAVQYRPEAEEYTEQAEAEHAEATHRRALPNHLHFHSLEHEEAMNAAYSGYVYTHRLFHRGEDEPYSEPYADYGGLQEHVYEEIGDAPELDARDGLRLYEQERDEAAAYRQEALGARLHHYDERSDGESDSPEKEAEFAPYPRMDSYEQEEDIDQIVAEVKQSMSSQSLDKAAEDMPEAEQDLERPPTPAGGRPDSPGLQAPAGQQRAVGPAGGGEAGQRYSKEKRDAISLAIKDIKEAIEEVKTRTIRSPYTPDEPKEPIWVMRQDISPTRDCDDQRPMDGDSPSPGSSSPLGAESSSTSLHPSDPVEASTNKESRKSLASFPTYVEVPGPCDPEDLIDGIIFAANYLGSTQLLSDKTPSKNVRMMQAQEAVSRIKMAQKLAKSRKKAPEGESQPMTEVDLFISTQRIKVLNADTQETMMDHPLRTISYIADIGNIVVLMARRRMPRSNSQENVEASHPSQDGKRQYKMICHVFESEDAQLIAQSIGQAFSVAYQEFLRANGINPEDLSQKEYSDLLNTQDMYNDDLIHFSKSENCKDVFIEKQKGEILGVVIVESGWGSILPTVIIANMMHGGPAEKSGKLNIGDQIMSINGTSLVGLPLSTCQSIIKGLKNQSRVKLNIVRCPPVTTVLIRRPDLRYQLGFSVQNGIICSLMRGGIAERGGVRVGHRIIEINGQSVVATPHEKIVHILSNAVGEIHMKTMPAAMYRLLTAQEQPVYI
# [8] = target: T1, Voltage-gated N-type calcium channel alpha-1B subunit/Amyloid beta A4 precursor protein-binding family A member 1; experiment: disruptors of Mint-PDZ/N-type channel peptide interaction – biochemical, HTRF, SAR follow-up (AID 2489); type: functional
# [9] = target: Scavenger receptor class B member 1 (Mus musculus, UniProt Q61009); experiment: mouse SR-BI DiI-HDL uptake blockers – ldlA[mSR-BI] cells, fluorescence, cherry pick, dose response (AID 493194); type: functional, cell-based;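 also: cellular uptake of fluorescent DiI-labeled HDL measured as cell fluorescence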
# [10] = target: X-box-binding protein 1 (Homo sapiens, UniProt P17861); type: functional, Cricetulus griseus;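 also: confirmatory dose-response counter-screen serving a CHOP assay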
# [11] = Trypanosoma cruzi growth suppression in host cells – NIH3T3 host cells, beta-gal luminescence, confirmation (AID 2044); type: functional, cell-based;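 also: intracellular parasites grown in NIH/3T3 mouse fibroblasts as host cells; luminescent beta-galactosidase reporter signal from transgenic T. cruzi replicating inside host cells; inhibitors lower the luminescence signal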
# [12] = NIH3T3 cell viability loss – ATP luminescence, mouse fibroblasts, counter-screen, dose response (AID 2010); type: functional, cell-based;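 also: cells exposed to compound for about 90 hours before reading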
# [13] = protection from phage-mediated lysis, alamar blue read-out – E. coli UTI89, K1F phage, bacterial capsule biogenesis inhibitors (AID 488966); type: functional
# [14] = target: T2, Heat shock factor protein 1 (Mus musculus, UniProt P38532); experiment: enhancement of HSF1-driven luciferase signal – cell-based, NIH3T3, luminescence, dose retest, confirmation (AID 435004); type: functional;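 also: stress induced by proteasome inhibitor MG132 added 30 min after compound; luciferase reporter driven by HSF1 response element in NIH3T3 cells; actives raise luminescence as potentiators of the MG132 stress response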
# T2 sequence (P38532 whole entry): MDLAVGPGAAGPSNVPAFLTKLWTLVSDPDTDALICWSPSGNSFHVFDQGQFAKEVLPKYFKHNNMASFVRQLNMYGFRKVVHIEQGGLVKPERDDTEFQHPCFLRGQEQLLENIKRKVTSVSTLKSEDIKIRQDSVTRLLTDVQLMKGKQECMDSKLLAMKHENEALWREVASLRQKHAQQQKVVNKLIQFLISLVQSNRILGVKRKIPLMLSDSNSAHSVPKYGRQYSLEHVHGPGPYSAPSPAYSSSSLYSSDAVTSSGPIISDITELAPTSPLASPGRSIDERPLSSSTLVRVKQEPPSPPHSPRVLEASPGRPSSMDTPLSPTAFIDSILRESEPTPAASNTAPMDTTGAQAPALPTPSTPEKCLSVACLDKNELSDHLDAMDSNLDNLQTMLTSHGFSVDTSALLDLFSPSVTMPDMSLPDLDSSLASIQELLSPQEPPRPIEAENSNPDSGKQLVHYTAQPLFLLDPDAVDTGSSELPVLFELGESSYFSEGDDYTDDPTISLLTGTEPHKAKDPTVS
# [15] = target: FAD-linked sulfhydryl oxidase ALR (Homo sapiens, UniProt P55789); experiment: ALR-catalysed DTT oxidation blockers – biochemical, H2O2 detection, luminescence, cherry-pick, dose response (AID 493248)
# [16] = tested on: Vero; experiment: cells; type: functional; conditions: Chlorocebus sabaeus
# [17] = acridine orange displacement from DNA – biochemical, fluorescence polarization, cherry-pick, artefact control for RAD54 inhibitor project, dose response (AID 651673); type: functional
# [18] = target: T3, DNA repair and recombination protein RAD54-like (Homo sapiens, UniProt Q92698); experiment: RAD54 Holliday junction migration blockers – biochemical, fluorescence, cherry-picked samples, dose series, confirmation (AID 651657); type: functional
# T3 sequence (Q92698 whole entry): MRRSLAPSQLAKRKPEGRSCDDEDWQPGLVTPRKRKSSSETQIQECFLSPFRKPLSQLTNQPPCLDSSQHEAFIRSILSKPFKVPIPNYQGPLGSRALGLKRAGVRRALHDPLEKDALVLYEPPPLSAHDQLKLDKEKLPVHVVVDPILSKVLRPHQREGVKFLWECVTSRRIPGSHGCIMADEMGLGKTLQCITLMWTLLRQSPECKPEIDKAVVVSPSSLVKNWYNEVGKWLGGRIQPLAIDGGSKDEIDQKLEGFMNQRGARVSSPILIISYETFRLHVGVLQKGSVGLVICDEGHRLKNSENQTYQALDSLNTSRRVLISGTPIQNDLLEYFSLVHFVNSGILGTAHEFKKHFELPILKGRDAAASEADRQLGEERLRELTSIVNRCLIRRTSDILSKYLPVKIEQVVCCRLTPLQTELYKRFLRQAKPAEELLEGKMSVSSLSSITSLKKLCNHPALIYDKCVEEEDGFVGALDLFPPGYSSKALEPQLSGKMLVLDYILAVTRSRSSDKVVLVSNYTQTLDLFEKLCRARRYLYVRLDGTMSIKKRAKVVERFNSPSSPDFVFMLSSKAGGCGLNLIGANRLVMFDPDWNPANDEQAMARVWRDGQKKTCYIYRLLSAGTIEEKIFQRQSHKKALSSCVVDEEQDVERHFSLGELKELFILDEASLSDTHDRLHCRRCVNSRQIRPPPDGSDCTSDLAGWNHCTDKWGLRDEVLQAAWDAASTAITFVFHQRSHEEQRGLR
# [19] = target: T4, DNA repair protein RAD52 homolog (Homo sapiens, UniProt P43351); type: functional, biochemical
# T4 sequence (P43351 whole entry): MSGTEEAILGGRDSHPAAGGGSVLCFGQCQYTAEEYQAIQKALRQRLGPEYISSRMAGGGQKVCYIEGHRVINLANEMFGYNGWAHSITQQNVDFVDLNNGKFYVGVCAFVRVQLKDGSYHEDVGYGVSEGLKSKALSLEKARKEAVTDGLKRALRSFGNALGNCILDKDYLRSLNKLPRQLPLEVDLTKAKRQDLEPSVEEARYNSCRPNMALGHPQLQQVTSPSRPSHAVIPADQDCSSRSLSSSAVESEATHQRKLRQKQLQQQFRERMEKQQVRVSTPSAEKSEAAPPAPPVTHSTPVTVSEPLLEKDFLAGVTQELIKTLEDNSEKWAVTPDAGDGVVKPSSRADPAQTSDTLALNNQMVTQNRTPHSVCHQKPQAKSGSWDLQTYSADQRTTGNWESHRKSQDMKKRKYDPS
# [20] = target: C-C chemokine receptor type 6 (Homo sapiens, UniProt P51684); experiment: antagonism of CCR6 beta-arrestin recruitment – cell-based, luminescent beta-arrestin readout, dose response (AID 504728); type: functional
# Sequence of C-C chemokine receptor type 6 (P51684 whole entry): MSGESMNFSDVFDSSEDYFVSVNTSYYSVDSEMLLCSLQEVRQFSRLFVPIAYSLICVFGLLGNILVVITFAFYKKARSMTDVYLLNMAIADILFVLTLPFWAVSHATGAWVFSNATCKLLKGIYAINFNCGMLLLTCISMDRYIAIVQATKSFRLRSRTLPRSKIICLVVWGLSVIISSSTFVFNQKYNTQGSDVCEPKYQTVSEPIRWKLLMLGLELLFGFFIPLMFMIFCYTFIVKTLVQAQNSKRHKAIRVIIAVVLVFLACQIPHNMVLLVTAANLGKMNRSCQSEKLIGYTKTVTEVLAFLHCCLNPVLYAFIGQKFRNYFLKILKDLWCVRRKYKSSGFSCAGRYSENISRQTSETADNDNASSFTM
# [21] = target: Beta-galactosidase (Escherichia coli, UniProt Q8VNN2); experiment: detection-enzyme interference by beta-gal modulators – biochemical, E. coli enzyme, set 3, artefact control for CCR6 antagonist project, dose response (AID 504712); type: functional
# Sequence of Beta-galactosidase (Q8VNN2 whole entry): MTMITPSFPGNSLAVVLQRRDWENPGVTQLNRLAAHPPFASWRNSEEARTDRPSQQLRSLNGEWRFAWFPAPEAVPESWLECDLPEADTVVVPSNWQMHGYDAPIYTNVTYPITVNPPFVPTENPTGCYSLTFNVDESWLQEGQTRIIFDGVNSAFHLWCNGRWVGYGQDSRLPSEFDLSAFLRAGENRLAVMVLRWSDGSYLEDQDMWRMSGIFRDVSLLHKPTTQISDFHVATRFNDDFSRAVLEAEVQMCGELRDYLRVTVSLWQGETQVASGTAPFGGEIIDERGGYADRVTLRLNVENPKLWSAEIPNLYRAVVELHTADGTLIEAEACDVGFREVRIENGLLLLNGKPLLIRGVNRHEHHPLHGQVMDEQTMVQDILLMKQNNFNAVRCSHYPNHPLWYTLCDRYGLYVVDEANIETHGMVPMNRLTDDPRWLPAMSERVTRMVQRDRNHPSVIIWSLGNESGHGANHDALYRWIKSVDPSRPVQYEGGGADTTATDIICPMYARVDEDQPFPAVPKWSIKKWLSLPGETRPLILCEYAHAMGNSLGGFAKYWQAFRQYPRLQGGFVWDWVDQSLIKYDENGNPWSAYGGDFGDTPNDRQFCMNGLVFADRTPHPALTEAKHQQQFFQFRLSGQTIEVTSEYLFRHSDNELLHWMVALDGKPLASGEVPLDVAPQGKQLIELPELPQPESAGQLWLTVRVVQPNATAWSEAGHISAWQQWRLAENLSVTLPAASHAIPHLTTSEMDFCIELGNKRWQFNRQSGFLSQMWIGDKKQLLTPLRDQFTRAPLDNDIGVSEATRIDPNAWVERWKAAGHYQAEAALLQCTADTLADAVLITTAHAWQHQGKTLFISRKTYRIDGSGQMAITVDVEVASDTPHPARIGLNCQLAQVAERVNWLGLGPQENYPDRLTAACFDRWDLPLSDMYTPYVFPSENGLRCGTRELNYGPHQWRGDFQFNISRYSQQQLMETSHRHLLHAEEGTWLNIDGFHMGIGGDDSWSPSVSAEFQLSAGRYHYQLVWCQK
# [22] = target: Acylamino-acid-releasing enzyme (Homo sapiens, UniProt P13798); experiment: endogenous PME-1 and serine hydrolase inhibition – cell lysate, mouse brain cytosol, FP-rhodamine, gel ABPP, selectivity assay for PME-1 inhibitor project, dose response, panel member APEH Assay Panel member description: Inhibition of N-acylaminoacyl-peptide hydrolase (APEH) (anti-target) (AID 2366)
# [23] = target: ORF 73 (Human herpesvirus 8, UniProt O40947); experiment: KSHV LANA DNA-binding disruption – biochemical, fluorescence polarization, cherry-picked samples, dose response (AID 504725); design: species or system Human gammaherpesvirus 8;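 also: fluorescence polarization of a labeled DNA duplex reporting LANA DNA binding; potency is for inhibitors that block LANA binding to the DNA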
# [24] = target: T5, Carboxy-terminal domain RNA polymerase II polypeptide A small phosphatase 1 (Homo sapiens, UniProt Q9GZU7); experiment: CTDSP1 inhibitors, concentration-response, biochemical, absorbance readout, ultra-high-throughput screen actives (AID 540297); type: functional
# T5 sequence (Q9GZU7 whole entry): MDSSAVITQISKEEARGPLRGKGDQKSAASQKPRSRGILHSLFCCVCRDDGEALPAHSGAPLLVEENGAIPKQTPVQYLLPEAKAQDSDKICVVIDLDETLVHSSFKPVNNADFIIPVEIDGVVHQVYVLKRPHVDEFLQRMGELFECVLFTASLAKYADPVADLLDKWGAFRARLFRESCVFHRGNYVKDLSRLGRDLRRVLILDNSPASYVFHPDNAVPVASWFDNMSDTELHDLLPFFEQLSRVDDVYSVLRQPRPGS
# [25] = target: T6, Histone-lysine N-methyltransferase NSD2 (Homo sapiens, UniProt O96028); type: biochemical
# T6 sequence (O96028 whole entry): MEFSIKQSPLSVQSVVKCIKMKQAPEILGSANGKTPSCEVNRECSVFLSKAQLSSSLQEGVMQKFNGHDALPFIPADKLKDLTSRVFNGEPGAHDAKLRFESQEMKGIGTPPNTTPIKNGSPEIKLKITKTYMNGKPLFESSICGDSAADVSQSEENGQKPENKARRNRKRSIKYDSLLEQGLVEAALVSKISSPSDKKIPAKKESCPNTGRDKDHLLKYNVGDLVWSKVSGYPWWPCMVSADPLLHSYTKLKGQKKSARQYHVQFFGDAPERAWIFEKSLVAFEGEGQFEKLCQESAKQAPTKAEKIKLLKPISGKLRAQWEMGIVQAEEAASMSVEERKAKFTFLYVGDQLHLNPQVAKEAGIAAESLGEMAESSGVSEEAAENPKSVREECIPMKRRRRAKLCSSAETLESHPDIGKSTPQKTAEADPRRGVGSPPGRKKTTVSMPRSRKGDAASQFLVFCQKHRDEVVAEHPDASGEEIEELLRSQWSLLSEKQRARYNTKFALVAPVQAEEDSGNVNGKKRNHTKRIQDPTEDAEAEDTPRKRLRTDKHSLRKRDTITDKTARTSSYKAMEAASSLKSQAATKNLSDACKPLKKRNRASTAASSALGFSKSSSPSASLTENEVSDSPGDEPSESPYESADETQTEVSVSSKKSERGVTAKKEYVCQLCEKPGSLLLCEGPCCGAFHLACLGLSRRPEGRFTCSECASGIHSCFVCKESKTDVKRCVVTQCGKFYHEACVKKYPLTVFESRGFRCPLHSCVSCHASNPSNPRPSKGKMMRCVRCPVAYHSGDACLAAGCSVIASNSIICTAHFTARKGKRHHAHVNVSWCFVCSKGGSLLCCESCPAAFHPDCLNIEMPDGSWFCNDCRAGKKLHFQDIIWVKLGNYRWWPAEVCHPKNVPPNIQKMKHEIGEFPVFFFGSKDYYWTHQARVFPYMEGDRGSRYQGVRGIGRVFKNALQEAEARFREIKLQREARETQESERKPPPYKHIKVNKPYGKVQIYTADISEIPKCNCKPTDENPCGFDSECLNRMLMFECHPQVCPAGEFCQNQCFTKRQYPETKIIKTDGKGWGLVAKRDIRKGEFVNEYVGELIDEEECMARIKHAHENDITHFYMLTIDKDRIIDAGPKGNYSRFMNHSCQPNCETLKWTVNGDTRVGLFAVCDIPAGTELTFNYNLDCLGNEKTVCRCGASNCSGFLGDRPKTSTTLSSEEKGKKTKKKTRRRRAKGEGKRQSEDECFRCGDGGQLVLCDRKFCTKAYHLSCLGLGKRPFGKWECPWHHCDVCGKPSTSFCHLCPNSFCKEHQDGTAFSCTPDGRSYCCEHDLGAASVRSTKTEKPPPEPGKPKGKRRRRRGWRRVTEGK
# [26] = target: Protein phosphatase methylesterase 1 (Homo sapiens, UniProt Q9Y570); experiment: endogenous PME-1 and serine hydrolase inhibition – cell lysate, mouse brain cytosol, FP-rhodamine, gel ABPP, selectivity assay for PME-1 inhibitor project, dose response, panel member PME-1 Assay Panel member description: Inhibition of endogenously expressed PME-1 (AID 2366)
compound,measurement,setting,value
CCOP(=O)(c1ccccc1)c1nc(-c2ccccc2Cl)oc1N1CCCCC1 (stereo unspecified),AC50,[1],4.67 µM (active)
same,AC50,[2],5.21 µM (active)
COc1ccc(N(C(=O)CSc2ncccn2)C(C(=O)NCCc2ccccc2)c2cccs2)cc1Cl (stereo unspecified),AC50,[3],> 381 µM (inactive)
CCOC(=O)C1CCN(c2ccc([N+](=O)[O-])cc2)CC1,CC50,[4],> 33 µM (not active)
same,AC50,[5],40.5 µM (active)
COC(=O)c1ccc(CNC(=O)COC(=O)c2cc(-c3ccco3)nc3ccccc23)cc1,IC50,[6],2.23 µM (active)
same,IC50,[7],6.74 µM (active)
same,IC50,[8],19.2 µM (active)
COc1cc(NC(=O)c2ccco2)c(OC)cc1NC(=O)Nc1ccc(Cl)cc1,AC50,[9],6.53 µM (active)
O=C(CNc1cccc(C(F)(F)F)c1)N/N=C/c1cccc(Br)c1,Absolute IC50 (XBP1),[10],10 µM
CN1CCN(c2ccc(Nc3ccnc4cc(Cl)ccc34)cc2)CC1,EC50,[11],1.39 µM (active)
same,EC50,[12],10.4 µM (active)
same,IC50,[13],> 300 µM (active)
same,EC50,[14],> 260 µM (inactive)
same,AC50,[15],5.43 µM (active)
same,CC50,[16],17.1 µM (active)
same,AC50,[17],56.1 µM (active)
same,AC50,[18],6.94 µM (active)
same,AC50,[19],2.47 µM (active)
COC(=O)N/N=C/c1cc(N=Nc2ccccc2Cl)ccc1O,IC50,[20],> 66.6 µM (inactive)
same,IC50,[21],> 66.6 µM (inactive)
CS(=O)(=O)/C(C#N)=C/c1cccn1S(=O)(=O)c1ccccc1,IC50,[22],20 µM (inactive)
O=C(O)COc1ccc2c(c1)O/C(=C\c1ccco1)C2=O,AC50,[23],157 µM (active)
same,IC50,[24],3.74 µM (active)
same,AC50,[25],> 20 µM (inactive)
CS(=O)(=O)/C(C#N)=C/c1cccn1S(=O)(=O)c1ccc([N+](=O)[O-])cc1[N+](=O)[O-],IC50,[26],> 20 µM (inactive)
